Data on 2 compounds can be found in patent US20210236467A1, “DANTROLENE FORMULATIONS AND METHODS OF THEIR USE” (EAGLE PHARMACEUTICALS, INC., priority 2018, published 2021).

Converted amounts (≈) assume the structure as drawn.

As usually defined, the solubility is how much of the substance goes into solution per volume.

A short description of data set [1]: Precipitation on dilution/addition of water. It is filed as physicochemical.
Data set [2] can be described thus: Effective pH determination (10-fold dilution of non-aqueous sample in water). It is filed as physicochemical. The conditions noted are these: for effective pH of 10 mg/mL samples in PEG400: Example 3, target 10 mg/mL in PEG400, 10-fold dilution in water, ratios acid:sodium by volume; for pH of the supernatant (effective pH): 10-fold dilution in water. How it is done: The pH of the supernatant was measured by making a 10-fold dilution of the supernatant in water.
The effective pH of the supernatant was measured by making a 10-fold dilution of the supernatant in water.
The effective pH of the dantrolene acid supernatant and dantrolene sodium sample was measured by making 10-fold dilutions in water, per the methods described elsewhere herein.
The effective pH of each sample was measured by making 10F dilutions in water. The pH values were recorded as follows—
Effective pH measurements were conducted at ambient room temperature, using a Thermo Scientific Orion Star A111 pH benchtop meter. The instrument was calibrated within one day of the effective pH measurement using phosphate buffers at pH 4, 7, and 10 (Hydrion Tri-Chek Buffer Capsule set).
Samples were prepared by diluting the non-aqueous/anhydrous sample 10 fold with water. The diluted sample was vortexed for about 10 to 15 seconds. Effective pH was measured using the pre-calibrated pH benchtop meter, directly after vortexing.
After each effective pH measurement, the pH bulb was rinsed with an appropriate rinse solution to remove the entire test sample from the bulb.

Data set [3] can be described thus: pH of aqueous slurry of dantrolene sodium. It is filed as physicochemical. The conditions noted are these: 43.5 mg in 43.5 mL of water. How it is done: 43.5 mgs of dantrolene sodium was slurried in 43.5 mL of water in a conical tube. The pH of the initial of the slurry was 9.89.
Data set [4] is described as follows: Dissolution and solution stability by visual inspection. It is filed as physicochemical. As to conditions: for dissolution on visual inspection: target 10 mg/mL in PEG400, after vortexing. How it is done: 13.0 mgs of dantrolene acid was dissolved in 1.3 mL of PEG400, targeting 10 mg/mL dantrolene acid. 12.7 mgs of dantrolene sodium was dissolved in 1.27 mL of PEG400, targeting 10 mg/mL of dantrolene sodium. […] Both tubes were centrifuged for 5 min at 3,900 rpm at room temperature to separate the sample into supernatant (dantrolene acid or dantrolene sodium in solution) and pellet (insoluble material). […] The supernatant of the dantrolene acid sample was transferred into a clean tube. The dantrolene acid supernatant and the dantrolene sodium solution were diluted 100- and 200-fold in 25% acetonitrile for analysis on the UPLC as described below.
Dantrolene sodium (6.4 mg) was weighed into a glass vial and propylene glycol (0.128 mL) was added, using a positive displacement pipette to achieve a target concentration of 50 mg/mL of dantrolene sodium. The contents of the vials were mixed with a positive displacement pipette. Visual inspection confirmed that the solutions were clear. The sample was a stable solution for at about 2 days at room temperature, after which time, precipitate formed. The precipitate was 99.9% dantrolene, as determined using HPLC.
Dantrolene sodium (6.2 mg) was weighed into a glass vial and PEG400 (0.124 mL) was added, using a positive displacement pipette to achieve a target concentration of 50 mg/mL of dantrolene sodium. The contents of the vials were mixed with a positive displacement pipette. Visual inspection confirmed that solutions were clear. The sample was a stable solution for at about 2 days at room temperature, after which time, precipitate formed. The precipitate was 99.9% dantrolene, as determined using HPLC.

For data set [5] the following is noted: cited from earlier work.
A short description of data set [6]: Solubility / concentration determination by UPLC of supernatant. It is filed as physicochemical. The conditions noted are these: organic solvent or mixture, thermodynamic from solid; saturated supernatant, room temperature, propylene glycol. As to the method: 11.2 mgs of dantrolene acid was added to 224 uL of PEG400. […] The tube was centrifuged for 5 min at 15,000 rpm at room temperature to separate the sample into supernatant (dantrolene acid in solution) and pellet (insoluble material). The supernatant was transferred into a clean tube and diluted 100-, 200- and 400-fold in 25% acetonitrile for analysis by UPLC as described below.
16.3 mgs of dantrolene acid was added to 326 uL of propylene glycol. […] The tube was centrifuged for 5 min at 15,000 rpm at room temperature to separate the sample into supernatant (dantrolene acid in solution) and pellet (insoluble material). The supernatant was transferred into a clean tube and diluted 50-, 100- and 200-fold in 25% acetonitrile for analysis by UPLC as described below. The solubility of dantrolene acid in propylene glycol was calculated as ˜0.8 mg/mL.
13.0 mgs of dantrolene acid was dissolved in 1.3 mL of PEG400, targeting 10 mg/mL dantrolene acid. […]
Analysis was performed using an Agilent UPLC System equipped with a diode array detector and an Agilent C18 Zorbax column. Samples were analyzed using a gradient method with mobile phase A containing 0.1% trifluoroacetic acid in water and mobile phase B containing 0.1% trifluoroacetic acid in acetonitrile. […] A 10 uL sample was injected and the analytes were detected by UV at 385 nm. […] Peak areas were determined by manual integration. […]

As to `O=C1CN(/N=C/c2ccc(-c3ccc([N+](=O)[O-])cc3)o2)C(O)=N1` [dantrolene sodium], the “effect of addition of 50 μL of water” value in data set [1] (50 mg/mL in PEG400 (0.124 mL)) and in data set [1] (50 mg/mL in propylene glycol (0.128 mL)) was “precipitation” throughout. Further, the “effective pH of 10 mg/mL samples in PEG400” value in data set [2] was 9.67. Also, the “pH of the initial slurry” value in data set [3] stood at 9.89. In addition, the “time as stable solution before precipitate formed” value in data set [4] (50 mg/mL in PEG400, room temperature) is listed as “about 2 days”; in data set [4] (50 mg/mL in propylene glycol, room temperature) it was “about 2 days”. In data set [4], the “dissolution on visual inspection” value is “completely dissolved”. Besides, the “visual inspection of solution” value in data set [4] (target 50 mg/mL in PEG400) and in data set [4] (target 50 mg/mL in propylene glycol) was “clear” in each case.
`O=C1CN(/N=C/c2ccc(-c3ccc([N+](=O)[O-])cc3)o2)C(O)=N1` [dantrolene acid, 1-{[5-(4-nitrophenyl)-2-furyl]methylideneamino}imidazolidine-2,4-dione]: the “behaviour of the 10-fold dilution in water” value is listed as “precipitated out quickly” in data set [1] (PEG400 supernatant) and “precipitated out slowly” in data set [1] (propylene glycol supernatant). Also, the “effective pH of 10 mg/mL samples in PEG400” value in data set [2] stood at 4.95. Further, the “pH of the supernatant (effective pH)” value in data set [2] (PEG400 supernatant) was 4.88; in data set [2] (propylene glycol supernatant), 5.73. Moreover, the “dissolution on visual inspection” value in data set [4] was “cloudy after vortexing”. In data set [5], the solubility in water result was “very poorly soluble in water”. For the same compound, the solubility in data set [6] was roughly 800 µg/mL (≈ 2550 µM).
